Assay results reported in patent publication US20010011082A1, “Parenteral bisphosphonate composition with improved local tolerance” (priority 2000, published 2001).

Assays:
[1] = Local tolerance test: s.c. injection of bisphosphonate solution pH 7.4 with and without chelating agent, swelling score and diameter of subcutaneous lesions at necropsy; settings: for adverse local reaction at the application sites: additional bivalent cation chelator in bisphosphonate formulation, compared with corresponding formulation without chelator; for severity of subcutaneous findings at necropsy / intensity and duration of local swelling at the injection site: chelating agent in injectable formulations of alendronate or ibandronate; for severity of subcutaneous findings at necropsy: necropsy after 9 days; for intensity and duration of local swelling at the injection site: observed over 9 days
Experimental: (§1) Groups of 3 rats were treated with test formulations containing 1 mg ibandronate/ml physiological saline buffered at pH 7.4. One group of rats received the test formulation without any additional additive, another group received the test solution with 1 mg EDTA/ml as an additive. The back of the rat was shaved one day before treatment. A volume of 0.5 ml each was injected subcutaneously at three different sites of the right part of shaved back. The left side of the back was treated with the corresponding formulation without ibandronate (placebo). Local reactions were assessed by a scoring system for swelling: 0=no reaction, 0.5=barely perceptible swelling, 1=slight swelling, 2=moderate swelling, 3=marked swelling, 4=severe swelling. The animals were observed over 9 days and thereafter necropsied. At necropsy, the diameter of subcutaneous lesions, mainly consisting of reddening or swelling, was measured.
(§2) The same study design as described in example 1 was applied to examine the concentration dependence of the EDTA effect. EDTA was added at concentrations of 0.1, 1.0 and 10 mg/ml.
(§3) DTPA was added at a concentration of 10 mg/ml.
(§4) The same study design as described in example 1 was applied to examine the efficacy of EDTA on local reaction to s.c. injected alendronate. The test formulations contained 3 mg alendronate/ml physiological saline buffered at pH 7.4. EDTA was added at a concentration of 10 mg/ml.

[2] = rat, in vivo, pH 7.4
Experimental: as §1, §2, §3, §4

Structure (SMILES)	efficacy of DTPA as chelating agent on local reaction ([1]; 1 mg ibandronate/ml pH 7.4, DTPA 10 mg/ml, s.c.)	adverse local reaction at the application sites [1]	severity of subcutaneous findings at necropsy ([1]; s.c.)	intensity and duration of local swelling at the injection site ([1]; s.c.)	improving effect of EDTA on local tolerance (dose dependence) [2]	effect on local adverse reactions at lowest ratio ([1]; 1 mg ibandronate/ml pH 7.4, molar ibandronate to EDTA ratio 1:0.1 (EDTA 0.1 mg/ml))	local adverse reactions at highest ratio ([1]; 1 mg ibandronate/ml pH 7.4, molar ibandronate to EDTA ratio 1:10 (EDTA 10 mg/ml))	effect of EDTA on alendronate induced local reaction ([1]; 3 mg alendronate/ml physiological saline pH 7.4, EDTA 10 mg/ml, s.c.)
O=C(O)CN(CCN(CC(=O)O)CC(=O)O)CCN(CC(=O)O)CC(=O)O [DTPA, diethylenetriaminepentaacetic acid]	could also be demonstrated	substantially improved	reduces	reduces				
O=C(O)CN(CCN(CC(=O)O)CC(=O)O)CC(=O)O [EDTA, ethylenediaminetetraacetic acid]		substantially improved	reduces	reduces	dose-related	still some beneficial effect	still not completely abolished	could also be demonstrated
